In ChEMBL document CHEMBL5724558, “Image-based profiling of drug vulnerabilities in CRC organoids” (2024):
Several values for one entry are separate records, joined by “and”; a condition that tells them apart may be missing. Equal values may be shown once.

Legend:
Type in all cases: functional, Homo sapiens
Parameters in all cases: dose or concentration left out as unconfirmed
[1] = tested on: Colon cancer organoid; experiment: Image-based profiling of donated chemical probes and chemogenomic kinase set in O21 CRC organoid. Image analysis is performed on the sum area metric, and the data were normalized to the DMSO control. After imaging the organoid viability is measured using the OneGloEX Luciferase Assay System. The normalized viability data and sum area are reported.
[2] = tested on: Colon cancer organoid; experiment: Image-based profiling of donated chemical probes and chemogenomic kinase set in O06 CRC organoid. Image analysis is performed on the sum area metric, and the data were normalized to the DMSO control. After imaging the organoid viability is measured using the OneGloEX Luciferase Assay System. The normalized viability data and sum area are reported.
[3] = tested on: Colon cancer organoid; experiment: Image-based profiling of donated chemical probes and chemogenomic kinase set in O09 CRC organoid. Image analysis is performed on the sum area metric, and the data were normalized to the DMSO control. After imaging the organoid viability is measured using the OneGloEX Luciferase Assay System. The normalized viability data and sum area are reported.

Compound	Cell Viability ([1]; Replication number 1)	Cell Viability ([1]; Replication number 2)	Cell Viability ([2]; Replication number 1)	Cell Viability ([2]; Replication number 2)	Cell Viability ([3]; Replication number 1)	Cell Viability ([3]; Replication number 2)
CC(C)Oc1ccc(-c2c[nH]cc2CN(C)CCO)cc1	96.8467% and 122.861%	101.748% and 92.8998%	142.087% and 115.973%	131.014% and 107.302%	133.832% and 103.4%	212.72% and 118.594%
CCCOc1ccn2c(C(C)=O)cc(-c3cccc(OC)c3)c2c1	114.752% and 106.401%	123.226% and 102.029%	185.69% and 133.611%	217.677% and 137.175%	257.79% and 103.4%	158.474% and 115.458%
COc1cc2c(cc1OCCCN1CCCC1)N=C(N)C21CCC1	92.2277% and 112.28%	68.723% and 97.1957%	110.816% and 131.678%	106.27% and 117.339%	70.9946% and 111.515%	77.9538% and 123.155%
CC(C)Oc1ccc(-c2nn([C@@H](C)c3oc4ccc(F)cc4c(=O)c3-c3cccc(F)c3)c3ncnc(N)c23)cc1F [UMBRALISIB]	111.232% and 144.39%	124.887% and 154.3%	88.4125% and 133.76%	91.2943% and 112.494%	196.172% and 129.157%	74.9501% and 109.33%
CN(C(=O)c1ccccc1)c1cc(N(C)c2ccc3c(c2)CCc2ccc(C(=O)NCCN4CCOCC4)cc2C3=O)ccc1F [FM-743]	111.27% and 106.402%	83.0534% and 97.3827%	90.1876% and 101.781%	105.862% and 118.933%	89.1217% and 99.5999%	73.0037% and 91.594%
Cc1c(C(=O)O)cc(-c2ccc(C3CCNCC3)cc2)c2ccc(-c3ccc(C(F)(F)F)cc3)cc12.Cl	85.8075% and 94.398%	96.6667% and 83.1067%	120.986% and 114.413%	106.141% and 127.102%	120.061% and 98.4744%	101.967% and 96.9469%
O=C(c1ccc(F)c(F)c1Nc1ccc(I)cc1F)N1CC(O)([C@@H]2CCCCN2)C1 [COBIMETINIB]	18.944% and 20.5157%	17.3316% and 26.4843%	2.921% and 4.652%	3.136% and 6.437%	5.994% and 14.4616%	
Cl.O=C([C@@H](Cc1cccc(C(F)(F)F)c1)NS(=O)(=O)c1cc(F)c2c(c1)CCNC2)N1CCCC1	76.7615% and 83.4749%	81.6272% and 85.3819%	106.357% and 105.584%	187.159% and 130.005%	80.2483% and 102.241%	101.188% and 101.204%
Cc1c(C(=O)Nc2ccc(Oc3ccnc4[nH]cc(-c5ccccc5)c34)c(F)c2)c(=O)n(-c2ccc(F)cc2)n1C	102.708% and 102.021%	105.094% and 114.574%	83.9357% and 96.3695%	67.8056% and 89.2545%	202.234% and 105.47%	155.309% and 109.6%
O=C(O)c1ccc(-c2c[nH]c3ncc(-c4ccccc4)cc23)cc1C1CCCC1 [GSK-650394]	104.512% and 92.3751%	123.401% and 109.943%	96.4947% and 115.731%	112.452% and 109.917%	86.6407% and 76.4679%	121.957% and 104.927%
COc1cc(C(=O)O)ncc1C#Cc1ccccc1NS(=O)(=O)c1cccc2c(N(C)C)ccnc12 [MSC-0516]	88.3697% and 90.0327%	92.8274% and 92.794%	100.098% and 102.024%	96.9075% and 85.7761%	106.133% and 95.2857%	130.736% and 112.411%
CC(C)(O)CNc1ncc(-c2ccnc(Nc3ccnc(Cl)c3)n2)c(CC2CC2)n1	40.3035% and 73.5889%	46.8315% and 88.665%	43.9028% and 71.665%	60.8585% and 108.175%	50.3707% and 42.8861%	72.1392% and 56.6897%
CN1CCN(c2cnc3c(C4CCN(C(=O)c5ccc(OC(F)(F)F)cc5N)CC4)ncnc3c2)CC1 [BAY-885]	131.298% and 119.498%	99.2561% and 98.9123%	84.7491% and 99.8381%	93.9717% and 91.062%	40.0205% and 84.5942%	66.5359% and 88.2236%
Cn1c(C2(NC(=O)c3ccc(NCC4CCCCC4)nc3)CCC2)nc2ccc(/C=C/C(=O)O)cc21 [BI 7656]	95.8092% and 94.6419%	106.526% and 92.3751%	99.3838% and 109.64%	121.504% and 124.591%	151.482% and 117.548%	136.087% and 97.2553%
COc1cc(OC)cc(-c2noc(N3CCN(C)C4(CCN(c5ccnc(C)c5)CC4)C3)n2)c1	102.094% and 140.496%	79.0091% and 95.0477%	99.0993% and 95.9195%	203.392% and 146.256%	147.791% and 90.4173%	237.296% and 126.576%
COc1cc2c(cc1NS(=O)(=O)c1ccc(Br)cc1C)n(C)c(=O)n2C	90.5613% and 147.551%	87.5695% and 113.305%	85.4589% and 143.275%	107.386% and 104.912%	82.8669% and 66.0742%	161.71% and 111.182%
Cc1cc(=O)n(C)c2cc(N3C(=O)CC[C@H](NS(=O)(=O)CC(C)C)[C@H]3c3ccc(Cl)cc3)ccc12	117.189% and 110.516%	129.923% and 112.232%	144.152% and 97.8523%	176.827% and 107.063%	117.261% and 101.082%	140.716% and 110.041%
O=C1CCc2cc(Nc3cc(OC4CCOCC4)c([N+](=O)[O-])cc3Cl)ccc2N1	105.584% and 104.204%	94.4034% and 103.061%	92.8758% and 110.539%	96.13% and 100.681%	197.242% and 145.978%	128.806% and 115.663%
CC(C)(O)[C@H](F)CN1Cc2cc(NC(=O)c3cnn4cccnc34)c(N3CCOCC3)cc2C1=O	101.018% and 118.952%	110.562% and 109.619%	109.705% and 119.757%	130.929% and 135.992%	71.2325% and 98.662%	94.649% and 96.9469%
CSc1cccnc1N1CCN(Cc2nc3ccccc3[nH]2)CC1 [A-769]	84.3952% and 76.2613%	99.9235% and 83.6735%	94.9192% and 98.1265%	78.7963% and 95.9431%	134.459% and 96.2835%	149.547% and 115.371%
Cc1ncsc1-c1ccc(CNC(=O)[C@@H]2C[C@@H](O)CN2C(=O)[C@@H](NC(=O)CCCCNC(=O)c2ccc(-c3ccc(N4CCN(C)CC4)c(NC(=O)c4c[nH]c(=O)cc4C(F)(F)F)c3)cc2)C(C)(C)C)cc1	88.0354% and 100.906%	93.0619% and 103.634%	127.591% and 97.9274%	138.236% and 103.65%	189.737% and 102.727%	128.896% and 122.558%
